Earlier results, collected in paper PMC3783256 (Marine Drugs, 2004).

Molecular target: RyR1-FKBP12 complex (Oryctolagus cuniculus, UniProt P11716)
Conditions: read-out: EC50, weak agonists of the receptor; ref 8a

Chain of RyR1-FKBP12 complex (P11716 whole entry): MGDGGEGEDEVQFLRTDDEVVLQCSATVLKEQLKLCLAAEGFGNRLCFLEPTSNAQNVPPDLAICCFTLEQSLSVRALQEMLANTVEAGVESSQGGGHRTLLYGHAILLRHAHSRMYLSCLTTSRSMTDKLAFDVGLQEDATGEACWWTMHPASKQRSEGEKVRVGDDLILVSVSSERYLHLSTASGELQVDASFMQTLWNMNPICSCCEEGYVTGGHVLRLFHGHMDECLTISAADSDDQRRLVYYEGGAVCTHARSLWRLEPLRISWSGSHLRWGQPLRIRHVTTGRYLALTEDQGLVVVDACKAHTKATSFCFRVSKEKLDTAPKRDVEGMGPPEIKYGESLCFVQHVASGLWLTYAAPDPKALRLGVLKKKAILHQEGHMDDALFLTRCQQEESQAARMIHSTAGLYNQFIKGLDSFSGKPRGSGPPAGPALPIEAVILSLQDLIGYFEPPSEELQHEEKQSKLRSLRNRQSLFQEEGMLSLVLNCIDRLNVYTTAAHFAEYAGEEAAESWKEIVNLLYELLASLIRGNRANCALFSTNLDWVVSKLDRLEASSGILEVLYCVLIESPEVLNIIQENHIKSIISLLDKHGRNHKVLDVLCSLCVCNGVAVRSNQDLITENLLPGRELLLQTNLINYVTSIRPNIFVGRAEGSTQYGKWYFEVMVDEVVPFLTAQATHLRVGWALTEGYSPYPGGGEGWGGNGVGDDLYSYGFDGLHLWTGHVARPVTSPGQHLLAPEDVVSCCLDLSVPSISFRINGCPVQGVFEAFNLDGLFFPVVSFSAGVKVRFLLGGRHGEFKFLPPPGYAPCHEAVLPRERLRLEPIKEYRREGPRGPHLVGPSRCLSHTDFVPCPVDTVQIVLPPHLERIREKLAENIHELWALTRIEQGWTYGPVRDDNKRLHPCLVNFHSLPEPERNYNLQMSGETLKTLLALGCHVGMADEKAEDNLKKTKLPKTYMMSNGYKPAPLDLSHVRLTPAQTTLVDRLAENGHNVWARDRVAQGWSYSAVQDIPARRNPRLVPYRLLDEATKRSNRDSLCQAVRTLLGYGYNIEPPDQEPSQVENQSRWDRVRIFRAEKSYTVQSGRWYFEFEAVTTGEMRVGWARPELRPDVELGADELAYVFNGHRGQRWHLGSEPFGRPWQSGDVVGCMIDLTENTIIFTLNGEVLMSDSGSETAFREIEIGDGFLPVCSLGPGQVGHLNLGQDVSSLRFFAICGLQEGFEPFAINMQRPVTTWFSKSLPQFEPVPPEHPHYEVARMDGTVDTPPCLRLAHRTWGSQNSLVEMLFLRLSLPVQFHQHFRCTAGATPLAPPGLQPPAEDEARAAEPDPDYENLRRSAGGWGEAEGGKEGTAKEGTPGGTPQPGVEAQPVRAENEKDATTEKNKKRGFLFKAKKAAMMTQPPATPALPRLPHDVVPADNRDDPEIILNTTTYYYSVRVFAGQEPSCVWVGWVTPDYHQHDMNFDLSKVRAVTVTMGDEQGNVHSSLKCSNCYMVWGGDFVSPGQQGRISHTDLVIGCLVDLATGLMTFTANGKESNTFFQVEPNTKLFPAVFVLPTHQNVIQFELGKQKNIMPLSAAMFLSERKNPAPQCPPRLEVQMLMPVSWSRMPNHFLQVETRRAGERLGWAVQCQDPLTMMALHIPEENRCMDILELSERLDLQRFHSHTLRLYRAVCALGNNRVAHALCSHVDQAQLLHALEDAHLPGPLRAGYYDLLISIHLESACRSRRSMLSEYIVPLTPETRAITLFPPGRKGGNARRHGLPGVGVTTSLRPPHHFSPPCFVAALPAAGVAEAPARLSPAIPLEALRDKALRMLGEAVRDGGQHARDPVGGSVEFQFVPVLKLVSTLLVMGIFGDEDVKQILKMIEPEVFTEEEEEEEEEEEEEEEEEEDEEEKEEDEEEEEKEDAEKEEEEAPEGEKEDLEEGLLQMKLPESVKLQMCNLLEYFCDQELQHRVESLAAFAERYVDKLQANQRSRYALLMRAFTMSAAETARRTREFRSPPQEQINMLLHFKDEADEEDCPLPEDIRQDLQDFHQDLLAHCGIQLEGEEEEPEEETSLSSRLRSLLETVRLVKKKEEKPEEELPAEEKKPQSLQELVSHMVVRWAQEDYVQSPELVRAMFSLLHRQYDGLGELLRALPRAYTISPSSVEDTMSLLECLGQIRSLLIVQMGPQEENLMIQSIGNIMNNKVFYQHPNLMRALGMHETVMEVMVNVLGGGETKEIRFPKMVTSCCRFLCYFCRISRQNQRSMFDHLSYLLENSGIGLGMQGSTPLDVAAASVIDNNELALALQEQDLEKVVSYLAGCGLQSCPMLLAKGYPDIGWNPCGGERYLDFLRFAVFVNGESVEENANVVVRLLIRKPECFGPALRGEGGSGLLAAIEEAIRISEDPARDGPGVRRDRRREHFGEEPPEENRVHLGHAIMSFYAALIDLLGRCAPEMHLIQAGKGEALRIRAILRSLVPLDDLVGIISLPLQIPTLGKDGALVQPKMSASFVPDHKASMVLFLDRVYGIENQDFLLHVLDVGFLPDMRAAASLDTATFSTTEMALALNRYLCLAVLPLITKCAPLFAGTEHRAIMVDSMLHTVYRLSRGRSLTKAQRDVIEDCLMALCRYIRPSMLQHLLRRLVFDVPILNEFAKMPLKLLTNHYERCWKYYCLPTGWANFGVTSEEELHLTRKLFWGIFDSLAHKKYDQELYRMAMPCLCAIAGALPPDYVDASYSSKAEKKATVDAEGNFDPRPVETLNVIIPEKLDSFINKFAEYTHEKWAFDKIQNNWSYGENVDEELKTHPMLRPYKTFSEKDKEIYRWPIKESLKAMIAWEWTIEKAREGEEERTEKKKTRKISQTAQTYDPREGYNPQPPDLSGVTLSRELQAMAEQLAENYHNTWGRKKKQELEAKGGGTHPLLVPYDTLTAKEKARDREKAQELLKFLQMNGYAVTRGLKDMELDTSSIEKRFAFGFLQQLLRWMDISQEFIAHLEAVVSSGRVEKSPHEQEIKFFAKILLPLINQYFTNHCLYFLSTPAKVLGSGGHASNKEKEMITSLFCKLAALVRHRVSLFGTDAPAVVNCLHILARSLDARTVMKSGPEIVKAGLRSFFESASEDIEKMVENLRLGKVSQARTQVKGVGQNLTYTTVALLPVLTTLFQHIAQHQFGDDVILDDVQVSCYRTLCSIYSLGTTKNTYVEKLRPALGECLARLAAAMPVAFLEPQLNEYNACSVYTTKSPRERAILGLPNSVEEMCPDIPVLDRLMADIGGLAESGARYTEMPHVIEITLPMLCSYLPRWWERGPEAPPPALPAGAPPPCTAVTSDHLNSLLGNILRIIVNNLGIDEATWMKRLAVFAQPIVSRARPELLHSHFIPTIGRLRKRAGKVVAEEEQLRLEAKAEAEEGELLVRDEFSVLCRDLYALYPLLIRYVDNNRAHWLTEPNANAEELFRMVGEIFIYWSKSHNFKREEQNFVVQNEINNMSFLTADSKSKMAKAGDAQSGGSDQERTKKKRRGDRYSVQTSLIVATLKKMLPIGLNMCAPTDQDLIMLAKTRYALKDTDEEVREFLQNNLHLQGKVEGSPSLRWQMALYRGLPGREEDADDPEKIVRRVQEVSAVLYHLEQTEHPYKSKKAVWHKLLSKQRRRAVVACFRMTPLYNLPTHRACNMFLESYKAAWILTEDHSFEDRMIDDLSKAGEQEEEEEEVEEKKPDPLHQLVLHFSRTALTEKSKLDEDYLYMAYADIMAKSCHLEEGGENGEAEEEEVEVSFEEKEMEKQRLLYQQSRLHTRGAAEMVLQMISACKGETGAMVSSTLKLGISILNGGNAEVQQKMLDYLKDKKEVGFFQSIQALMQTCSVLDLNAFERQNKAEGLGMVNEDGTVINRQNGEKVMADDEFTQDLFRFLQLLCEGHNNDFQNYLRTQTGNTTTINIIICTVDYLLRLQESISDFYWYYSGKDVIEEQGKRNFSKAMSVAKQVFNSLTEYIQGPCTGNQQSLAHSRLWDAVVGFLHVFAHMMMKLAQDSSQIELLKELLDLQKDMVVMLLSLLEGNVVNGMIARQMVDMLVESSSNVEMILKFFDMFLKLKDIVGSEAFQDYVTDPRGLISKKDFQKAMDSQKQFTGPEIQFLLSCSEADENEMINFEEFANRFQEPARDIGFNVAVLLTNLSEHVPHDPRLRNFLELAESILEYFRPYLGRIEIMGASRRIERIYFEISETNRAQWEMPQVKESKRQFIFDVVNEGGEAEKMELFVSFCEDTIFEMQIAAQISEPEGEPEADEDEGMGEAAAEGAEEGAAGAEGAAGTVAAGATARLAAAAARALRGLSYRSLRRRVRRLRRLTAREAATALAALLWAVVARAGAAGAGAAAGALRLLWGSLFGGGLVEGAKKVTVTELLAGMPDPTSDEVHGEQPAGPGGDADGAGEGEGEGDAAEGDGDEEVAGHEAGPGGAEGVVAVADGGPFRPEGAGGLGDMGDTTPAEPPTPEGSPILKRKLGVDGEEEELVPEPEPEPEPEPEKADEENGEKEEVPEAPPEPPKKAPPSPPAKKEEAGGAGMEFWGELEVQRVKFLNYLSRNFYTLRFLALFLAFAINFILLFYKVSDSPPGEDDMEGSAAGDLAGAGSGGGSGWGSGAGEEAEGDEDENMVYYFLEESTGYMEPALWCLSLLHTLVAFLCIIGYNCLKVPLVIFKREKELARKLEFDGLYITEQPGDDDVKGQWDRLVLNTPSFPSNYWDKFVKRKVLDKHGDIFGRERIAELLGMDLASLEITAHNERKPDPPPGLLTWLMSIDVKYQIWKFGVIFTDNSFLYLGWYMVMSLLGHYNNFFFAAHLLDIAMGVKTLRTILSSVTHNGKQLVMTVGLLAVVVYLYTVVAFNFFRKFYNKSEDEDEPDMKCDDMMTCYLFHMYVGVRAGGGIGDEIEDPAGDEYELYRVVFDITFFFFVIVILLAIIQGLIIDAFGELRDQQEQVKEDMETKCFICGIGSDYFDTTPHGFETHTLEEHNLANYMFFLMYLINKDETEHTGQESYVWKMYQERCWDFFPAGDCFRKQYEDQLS
Chain of RyR1-FKBP12 complex (P62943 2-108 partner limits assumed): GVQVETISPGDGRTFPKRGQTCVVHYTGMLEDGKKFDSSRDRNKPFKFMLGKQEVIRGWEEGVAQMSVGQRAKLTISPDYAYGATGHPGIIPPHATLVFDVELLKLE

- EC50: 13.6 µM
Substance: 15,34-O-di-sulfatobastadin-7
